Activity coefficient data for four compounds are collected here from the NIST ThermoML archive (doi:10.1016/j.fluid.2006.06.024).

± gives the expanded uncertainty stated by the source.

This series is described as follows: activity coefficient (dimensionless); of the first substance listed, at infinite dilution; xn = mol fraction of the nth substance listed. As to conditions: Gas, Chromatography, x1 = 0.

On to `C=CC=C` [1,3-butadiene] + CO, for which the activity coefficient (374 K) amounted to 5 ± 0.2, the activity coefficient (393.3 K) was 4.7 ± 0.2 and the activity coefficient (412.5 K) amounted to 4.2 ± 0.2.
Take `C=CCC` [1-butene] + CO: the activity coefficient by setting is: (374 K) 7 ± 0.3; (394.8 K) 6.1 ± 0.3; (412.5 K) 5.6 ± 0.3.
In the case of `C=C(C)C` [2-methylpropene] + CO, the activity coefficient runs as follows: (374 K) 6.5 ± 0.3; (393.3 K) 6 ± 0.3; (412.5 K) 5.4 ± 0.3.
As to `C/C=C/C` [(E)-2-butene] + CO, the activity coefficient is 7.3 ± 0.3 (375.2 K), 6.6 ± 0.3 (394.8 K) and 6 ± 0.3 (412.6 K).
